Measured values taken from patent US5730962A, “Depigmenting cosmetic or dermatologic composition containing a benzofuran derivative and its use in depigmentating skin” (L'Oreal, priority 1991, dated 1998).

System: fungus tyrosinase
Experiment: in vitro inhibition test of the activity of tyrosinase (dopachrome formation, 475 nm)
Type: biochemical
Conditions: inhibitor at 50 molar percent relative to tyrosine; 0.1M phosphate buffer pH 6.5; 25° C.; optical density at 475 nm at plateau
Source text: Certain ones of the benzofuran derivatives have been comparatively studied with respect to hydroquinone, at molar equivalent amounts, in the in vitro inhibition test of the activity of tyrosinase.
According to this test the amount of dopachrome formed during the course of the reaction chain for the transformation of tyrosine into melanins is followed by visible spectrometry at 475 nm. These reactions are catalyzed, in vitro, by fungus tyrosinase, in the presence of a reducing co-substrate(for example, L-dopa in a small amount) to initiate the hydroxylation reaction of L-tyrosine into L-dopa, which is then catalytically oxidized into dopaquinone, then into dopachrome, produced intermediate before the non-enzymatic oxidation reactions terminating in the formation of melanins.
The concentration of dopachrome formed during the course of time in the presence and in the absence of the inhibitor is then measured.
The concentrations of inhibitors are fixed at 50 molar percent relative to the tyrosine concentration in the reaction medium.
The inhibition effect is expressed by the reduction of the maximum amount of dopachrome formed (optical density value at 475 nm read at the plateau of the curve) relative to the amount obtained in the absence of inhibitor.
A--0.1M phosphate buffer pH=6.5 (TWEEN 20 at 1%)
B--L-tyrosine mother solution at 2×10^-3 M in A
C--L-dopa mother solution at 10^-4 M in A
D--Fungus tyrosinase mother solution at 2,400 units/ml in A
E--Inhibitor mother solution at 10^-2 M in A (solutions C and D are prepared the same day).
Homogenize and equilibrate at 25° C.
rapidly mix and observe the kinetics by the measurement of the absorbance at 475 nm as a function of time.

| Compound | % inhibitor (reduction of the maximum amount of dopachrome formed relative to the amount obtained in the absence of inhibitor) [%] |
| --- | --- |
| Oc1ccc2c(c1)OCC2 | 66 |
| Oc1ccc(O)cc1 [hydroquinone, reference compound] | 33 |
| Oc1ccc2ccoc2c1 | 54 |
| Oc1ccc2occc2c1 | 56 |
